Measurements reported in patent US20260250290A1 (BRISTOL-MYERS SQUIBB COMPANY, priority 2023, published 2026).
Structures can show the parent of a compound that is named as a salt.

Target: T1, SGK1 (Homo sapiens, UniProt O00141)
T1 sequence (O00141 1-431): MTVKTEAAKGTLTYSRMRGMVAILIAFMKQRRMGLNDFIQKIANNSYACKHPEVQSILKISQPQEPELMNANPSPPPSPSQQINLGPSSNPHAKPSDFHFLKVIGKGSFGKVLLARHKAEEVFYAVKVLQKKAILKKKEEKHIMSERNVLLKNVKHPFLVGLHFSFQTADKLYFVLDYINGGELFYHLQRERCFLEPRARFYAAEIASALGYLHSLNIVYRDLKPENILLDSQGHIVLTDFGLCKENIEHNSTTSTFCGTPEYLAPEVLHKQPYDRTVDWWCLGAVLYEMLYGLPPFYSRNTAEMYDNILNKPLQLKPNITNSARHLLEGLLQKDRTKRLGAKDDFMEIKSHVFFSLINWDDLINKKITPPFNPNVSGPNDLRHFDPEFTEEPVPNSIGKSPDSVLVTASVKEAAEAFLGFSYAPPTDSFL
Assay: SGK1 inhibition Assay B (Echo mass spectrometry of phosphorylated peptide product)
Assay type: biochemical
Details: 60 min at room temperature

| Structure (SMILES) | IC50 [nM] |
| --- | --- |
| CN1CCN(c2cccc(C(=O)N[C@@H]3CCCN(c4cc(-c5cnn(C(F)F)c5)n5ncnc(N)c45)C3)n2)CC1 [Example 807, (R)-N-(1-(4-amino-7-(1-(difluoromethyl)-1H-pyrazol-4-yl)pyrrolo[2,1-f][1,2,4]triazin-5-yl)piperidin-3-yl)-6-(4-methylpiperazin-1-yl)picolinamide, TFA salt] | 41 |
| COc1cc(-c2cc(N3CCC[C@@H](NC(=O)c4cccc(N5CC6(C5)CN(C(C)C)C6)n4)C3)c3c(N)ncnn23)ccc1-n1cnnn1 [Example 827, (R)-N-(1-(4-amino-7-(3-methoxy-4-(1H-tetrazol-1-yl)phenyl)pyrrolo[2,1-f][1,2,4]triazin-5-y1)piperidin-3-yl)-6-(6-isopropyl-2,6-diazaspiro[3.3]heptan-2-yl)picolinamide] | 7 |
| CC1=C(c2cc(N3CCC[C@@H](NC(=O)c4sc(C)nc4O[C@H]4CC[C@@H](NC5CCOC5(C)C)CC4)C3)c3c(N)ncnn23)COC1=O (stereo partly drawn) [Example 1012, N—((R)-1-(4-amino-7-(4-methyl-5-oxo-2,5-dihydrofuran-3-yl)pyrrolo[2,1-f][1,2,4]triazin-5-yl)piperidin-3-yl)-4-(((1S,4S)-4-((2,2-dimethyltetrahydrofuran-3-yl)amino)cyclohexyl)oxy)-2-methylthiazole-5-carboxamide] | 1.1 |
| Cc1cc(O[C@@H]2C[C@H]3CC[C@@H](C2)N3C)c(C(=O)N[C@@H]2CCCN(c3cc(-c4ccc(-n5cnnn5)c(F)c4)n4ncnc(N)c34)C2)s1 [Example 847, N-((R)-1-(4-amino-7-(3-fluoro-4-(1H-tetrazol-1-yl)phenyl)pyrrolo[2,1-f][1,2,4]triazin-5-yl)piperidin-3-yl)-5-methyl-3-(((1R,3s,5S)-8-methyl-8-azabicyclo[3.2.1]octan-3-yl)oxy)thiophene-2-carboxamide, TFA salt] | 2 |
| N#Cc1ccc(-c2cc(N3CCC[C@@H](NC(=O)c4sc(Cl)cc4O[C@@H]4CN5CCC4CC5)C3)c3c(N)ncnn23)cn1 [Example 950, N—((R)-1-(4-Amino-7-(6-cyanopyridin-3-yl)pyrrolo[2,1-f][1,2,4]triazin-5-yl)piperidin-3-yl)-5-chloro-3-(((S)-quinuclidin-3-yl)oxy)thiophene-2-carboxamide] | 0.6 |
| Nc1ncnn2c(-c3ccc(=O)n(CC(F)F)n3)cc(N3CCC[C@@H](NC(=O)c4sc(Cl)cc4O[C@@H]4C[C@H]5CCC[C@@H](C4)N5CCO)C3)c12 [Example 972, N—((R)-1-(4-amino-7-(1-(2,2-difluoroethyl)-6-oxo-1,6-dihydropyridazin-3-yl)pyrrolo[2,1-f][1,2,4]triazin-5-yl)piperidin-3-yl)-5-chloro-3-(((1R,3s,5S)-9-(2-hydroxyethyl)-9-azabicyclo[3.3.1]nonan-3-yl)oxy)thiophene-2-carboxamide] | 2 |
| CC(=O)N1CC=C(c2cc(N3CCC[C@@H](NC(=O)c4sc(Cl)cc4OC4CC5COCC(C4)N5CCO)C3)c3c(N)ncnn23)C1 (some centres unmarked) [Example 986] | 37 |
| CCC(CO)NC1CCC(Oc2nc(C)sc2C(=O)NC2CCCN(c3cc(C4=C(C)C(=O)OC4)n4ncnc(N)c34)C2)CC1 [Example 1009, N-((R)-1-(4-amino-7-(4-methyl-5-oxo-2,5-dihydrofuran-3-yl)pyrrolo[2,1-f][1,2,4]triazin-5-y1)piperidin-3-y1)-4-((4-(((S)-1-hydroxybutan-2-yl)amino)cyclohexyl)oxy)-2-methylthiazole-5-carboxamide] | 1.9 |
| CC(=O)c1ccc(-c2cc(N3CCC[C@@H](NC(=O)c4sc(Cl)cc4O[C@@H]4C[C@H]5CC[C@@H](C4)N5C)C3)c3c(N)ncnn23)cc1F [Example 839, N-((R)-1-(7-(4-acetyl-3-fluorophenyl)-4-aminopyrrolo[2,1-f][1,2,4]triazin-5-yl)piperidin-3-yl)-5-chloro-3-(((1R,3s,5S)-8-methyl-8-azabicyclo[3.2.1]octan-3-yl)oxy)thiophene-2-carboxamide] | 2 |
| CCOC1=C(C(=O)N[C@@H]2CCCN(c3cc(C4=CCN(C(C)=O)C4)n4ncnc(N)c34)C2)CN(C2(C(F)(F)F)CC2)C1=O [Example 757, (R)-N-(1-(7-(1-acetyl-2,5-dihydro-1H-pyrrol-3-yl)-4-aminopyrrolo[2,1-f][1,2,4]triazin-5-yl)piperidin-3-yl)-4-ethoxy-5-oxo-1-(1-(trifluoromethyl)cyclopro-pyl)-2,5-dihydro-1H-pyrrole-3-carboxamide] | 89 |
| COC(=O)N1CC=C(c2cc(N3CCC[C@@H](NC(=O)c4sc(C)nc4OC4CCN(C(C)C)CC4)C3)c3c(N)ncnn23)C1 [Example 361, Methyl (R)-3-(4-amino-5-(3-(4-((1-isopropylpiperidin-4-yl)oxy)-2-methylthiazole-5-carboxamido)piperidin-1-yl)pyrrolo[2,1-f][1,2,4]triazin-7-yl)-2,5-dihydro-1H-pyrrole-1-carboxylate] | 26 |
| CC(=O)N1CC=C(c2cc(N3CCC[C@@H](NC(=O)c4sc(C#N)cc4O[C@@H]4C[C@H]5CC[C@@H](C4)N5C)C3)c3c(N)ncnn23)C1 [Example 920, N—((R)-1-(7-(1-acetyl-2,5-dihydro-1H-pyrrol-3-yl)-4-aminopyrrolo[2,1-f][1,2,4]triazin-5-yl)piperidin-3-yl)-5-cyano-3-(((1R,3s,5S)-8-methyl-8-azabicyclo[3.2.1]octan-3-yl)oxy)thiophene-2-carboxamide] | 2 |

Second part, the compound after the results:

| IC50 [nM] | Structure (SMILES) |
| --- | --- |
| 0.6 | Cc1nc(OC2CCC(N3CC(O)C3)CC2)c(C(=O)N[C@@H]2CCCN(c3cc(C4=CC(=O)OC4)n4ncnc(N)c34)C2)s1 (stereo partly drawn) [Example 997, (R)-N-(1-(4-amino-7-(5-oxo-2,5-dihydrofuran-3-y1)pyrrolo[2,1-f] [1,2,4]triazin-5-y1)piperidin-3-y1)-4-((4~(3-hydroxyazetidin-1-yl)cyclohexyl)oxy)-2-methylthiazole-5-carboxamide] |
| 0.7 | CCC1=C(c2cc(N3CCC[C@@H](NC(=O)c4sc(C)nc4OC4CCC(N5CC(O)C5)CC4)C3)c3c(N)ncnn23)COC1=O (single isomer, unassigned) [Example 1021] |
| 0.9 | Cc1nc(OC2CCC(N3CC(O)C3)CC2)c(C(=O)N[C@@H]2CCCN(c3cc(-c4ccc(C(N)=O)c(F)c4)n4ncnc(N)c34)C2)s1 (stereo partly drawn) [Example 1039, (R)—N-(1-(4-amino-7-(4-carbamoyl-3-fluorophenyl)pyrrolo[2,1-f][1,2,4]triazin-5-yl)piperidin-3-yl)-4-((4-(3-hydroxyazetidin-1-yl)cyclohexyl)oxy)-2-methylthiazole-5-carboxamide] |
| 1.7 | COC[C@@H](C)NC1CCC(Oc2nc(C)sc2C(=O)N[C@@H]2CCCN(c3cc(-c4ccc(C(N)=O)c(F)n4)n4ncnc(N)c34)C2)CC1 (some centres unmarked) [Example 1040] |
| 0.5 | Cc1nc(O[C@H]2CC[C@@](C)(N)CC2)c(C(=O)N[C@@H]2CCCN(c3cc(-c4ccc(-n5cnnn5)c(F)c4)n4ncnc(N)c34)C2)s1 [Example 934, 4-(((1s,4S)-4-Amino-4-methylcyclohexyl)oxy)-N—((R)-1-(4-amino-7-(3-fluoro-4-(1H-tetrazol-1-yl)phenyl)pyrrolo[2,1-f][1,2,4]triazin-5-yl)piperidin-3-yl)-2-methylthiazole-5-carboxamide] |
